In ChEMBL document CHEMBL3228040 (J Med Chem, 1979):
Activity calls are given as the source filed them. The rule behind the calls is not given here.

How the values were obtained:
Opioid receptor = Opioid receptor (Rattus norvegicus, UniProt P33533+P34975+P33535); experiment: Displacement of radiolabeled dihydromorphine from opioid receptor in rat brain homogenates; type: tissue-based
Mus musculus [1] = experiment: Analgesic activity in sc dosed mouse by hot plate assay; type: functional
Rhesus monkey [2] = experiment: Effect on physical dependence capacity in morphine-dependent rhesus monkey at 20 mg/kg by single-dose suppression test; type: functional, organism-based; parameters: dose 20 mg/kg; conditions: Macaca mulatta
Mus musculus [3] = organism: Mus musculus; experiment: Analgesic activity in mouse by Nilsen assay; type: functional
Rhesus monkey [4] = experiment: Effect on physical dependence capacity in morphine-dependent rhesus monkey assessed as partial suppression of abstinence signs at 20 to 40 mg/kg by single-dose suppression test; type: functional, organism-based; conditions: Macaca mulatta
Mus musculus [5] = organism: Mus musculus; experiment: (§1) Analgesic activity in mouse by tail flick assay; type: functional
Mus musculus [6] = organism: Mus musculus; experiment: Analgesic activity in mouse assessed as inhibition of PPQ-induced writhing; type: functional
Rhesus monkey [7] = experiment: Effect on physical dependence capacity in morphine-dependent rhesus monkey at 1.2 mg/kg by single-dose suppression test; type: functional, organism-based; parameters: dose 1.2 mg/kg; conditions: Macaca mulatta
Mus musculus [8] = organism: Mus musculus; experiment: as §1; type: functional, organism-based
Rhesus monkey [9] = experiment: Effect on physical dependence capacity in morphine-dependent rhesus monkey up to 16 mg/kg by single-dose suppression test; type: functional, organism-based; parameters: dose 16 mg/kg; conditions: Macaca mulatta

## CCOC(=O)C1(c2ccccc2)CCN(CCC#N)CC1
Opioid receptor
  EC50: 8000 nM
Mus musculus [1]
  ED50: 100 mg/kg
Rhesus monkey [2]
  Activity: inactive

## CCC(=O)C1(c2cccc(O)c2)CCN(CCC#N)CC1
Mus musculus [3]
  ED50: > 50 mg/kg
Opioid receptor
  EC50: 1500 nM
Rhesus monkey [4]
  Activity: Active

## CC[C@H]1C2Cc3ccc(O)cc3[C@@]1(C)CCN2C (mixture of isomers)
Opioid receptor
  EC50: 15 nM
Mus musculus [1]
  ED50: 1.3 mg/kg
Mus musculus [5]
  ED50: 6.4 mg/kg
Mus musculus [6]
  ED50: 0.2 mg/kg
Rhesus monkey [7]
  Activity: Active

## CC[C@H]1C2Cc3ccc(O)cc3[C@@]1(C)CCN2CCC#N (mixture of isomers)
Opioid receptor
  EC50: 4 nM
Mus musculus [1]
  ED50: 0.21 mg/kg
Mus musculus [5]
  ED50: 0.8 mg/kg
Mus musculus [6]
  ED50: 0.09 mg/kg
Mus musculus [8]
  inhibition: inactive
Rhesus monkey [7]
  Activity: Active

## CC[C@H]1C2Cc3ccc(O)cc3[C@@]1(C)CCN2CCC(N)=O (mixture of isomers)
Opioid receptor
  EC50: 9 nM
Mus musculus [1]
  ED50: 19.3 mg/kg
Mus musculus [5]
  Activity: inactive
Mus musculus [6]
  inhibition: inactive
Mus musculus [8]
  inhibition: inactive
Rhesus monkey [9]
  Activity: inactive

## CC1C2Cc3ccc(O)cc3C1(C)CCN2C (racemic)
Opioid receptor
  EC50: 9 nM
Mus musculus [1]
  ED50: 1.18 mg/kg

## CCC(=O)C1(c2cccc(O)c2)CCN(C)CC1 [KETOBEMIDONE]
Opioid receptor
  EC50: 2 nM
Mus musculus [1]
  ED50: 0.8 mg/kg

## CCOC(=O)C1(c2ccccc2)CCN(C)CC1 [MEPERIDINE]
Mus musculus [1]
  ED50: 4.7 mg/kg

## CN1CC[C@]23c4c5ccc(O)c4O[C@H]2[C@@H](O)C=C[C@H]3[C@H]1C5 [MORPHINE]
Mus musculus [1]
  ED50: 1.2 mg/kg
